This note sets out measurements from ChEMBL document CHEMBL1201862, “PubChem BioAssay data set” (2004).

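Briefly, cells in 96-well plates were exposed to five compound concentrations for 48 h, and endpoints were estimated by linear interpolation. GI50 marks 50% less growth.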 Active and inactive are the calls of the source. Rule as the data show it: active = GI50 up to about 1.1 µM and inactive = higher.

Some test systems named below: TK-10; NCI-H460; M14; OVCAR-4; KM12; HOP-92; ACHN; UO-31; OVCAR-8; NCI-H226; NCI-H23; NCI-H522; MOLT-4; A498; UACC-62; SK-MEL-5.
Assay in all cases: NCI tumour cell line growth inhibition, 48 h

As for `CC12Oc3ccc4ccccc4c3CC1Cc1c(ccc3ccccc13)O2` (stereo unspecified), the GI50 in the assay on TK-10 is 46.2 µM (inactive); with NCI-H460, 82.4 µM (inactive); in the assay on M14 it was 38.9 µM (inactive); in the assay with OVCAR-4 it was 26.5 µM (inactive); in the assay on KM12 it was > 100 µM (inactive); in the assay on HOP-92, 0.124 µM (active). The GI50 in the assay with ACHN is > 100 µM (inactive); in the assay on UO-31 it was > 100 µM (inactive); in the assay on OVCAR-8, 49.7 µM (inactive); with NCI-H226 it was 23 µM (inactive); in the assay with NCI-H23, > 100 µM (inactive); in the assay on NCI-H522, 70 µM (inactive).

For the molecule `Cc1ccc(Cc2c(=O)[nH]nc3ccccc23)cc1`, the GI50 in the assay on TK-10, in the assay on MOLT-4, in the assay with NCI-H460, in the assay with M14, with A498 and with OVCAR-4 was > 100 µM (inactive) in each case. The GI50 is > 100 µM (inactive) with KM12; 89.7 µM (inactive) in the assay on HOP-92; > 100 µM (inactive) with ACHN; 58.3 µM (inactive) in the assay on UO-31; > 100 µM (inactive) in the assay on UACC-62; > 100 µM (inactive) in the assay on OVCAR-8. In addition, the GI50 in the assay on NCI-H226, in the assay with NCI-H23 and in the assay on SK-MEL-5 was > 100 µM (inactive) each time.

Take `Cc1cc2c(C)n(Cc3ccc(Cl)cc3Cl)nc2c(C(=O)O)c1C`: the GI50 with TK-10 was > 100 µM (inactive); in the assay on MOLT-4 it was > 100 µM (inactive); in the assay on NCI-H460 it was 96.4 µM (inactive); in the assay on HOP-92, 42.9 µM (inactive); with ACHN it was > 100 µM (inactive); in the assay on UO-31, > 100 µM (inactive). For the same molecule, the GI50 in the assay with UACC-62 was 96.8 µM (inactive); with OVCAR-8 it was > 100 µM (inactive); with NCI-H226 it was > 100 µM (inactive); in the assay on NCI-H23 it was > 100 µM (inactive).

With `COc1cccc(NC(=O)CSc2nnc(Cc3ccccc3)o2)c1`, the GI50 in the assay with TK-10, in the assay on MOLT-4, with NCI-H460, in the assay on M14, in the assay with A498 and in the assay with OVCAR-4 was > 100 µM (inactive) each time. The GI50 with KM12 is > 100 µM (inactive); with ACHN, 23.3 µM (inactive); in the assay with UO-31, > 100 µM (inactive); in the assay with UACC-62 it was > 100 µM (inactive); in the assay on OVCAR-8, > 100 µM (inactive); in the assay with NCI-H226, > 100 µM (inactive). Also, the GI50 is > 100 µM (inactive) with NCI-H23, > 100 µM (inactive) in the assay on NCI-H522 and 57 µM (inactive) with SK-MEL-5.

For the molecule `Cc1ccccc1C1SCc2nc3ccccc3n21` (stereo unspecified), the GI50 in the assay on TK-10 is > 100 µM (inactive); in the assay with KM12 it was > 100 µM (inactive); in the assay with HOP-92 it was 2.43 µM (inactive); in the assay on ACHN, > 100 µM (inactive); with UO-31 it was > 100 µM (inactive); in the assay with UACC-62, 7.28 µM (inactive). Besides, the GI50 with OVCAR-8 was > 100 µM (inactive); in the assay with NCI-H226, 60.3 µM (inactive); in the assay on NCI-H23 it was 12.8 µM (inactive); in the assay on NCI-H522, 21.8 µM (inactive); in the assay on SK-MEL-5 it was 5.19 µM (inactive).

With `NN/C(Cc1ccccc1)=N/NC(N)=S`, the GI50 in the assay with TK-10 was > 100 µM (inactive); with MOLT-4, 49.9 µM (inactive); in the assay with NCI-H460, > 100 µM (inactive); in the assay with M14, > 100 µM (inactive); in the assay on A498, > 100 µM (inactive); with OVCAR-4, > 100 µM (inactive). The GI50 in the assay with KM12 was 96.4 µM (inactive); in the assay on HOP-92 it was > 100 µM (inactive); with ACHN, 62.5 µM (inactive); with UO-31 it was > 100 µM (inactive); in the assay on UACC-62, > 100 µM (inactive); in the assay with OVCAR-8 it was > 100 µM (inactive). The GI50 is > 100 µM (inactive) in the assay on NCI-H226, > 10 µM (inactive) in the assay on NCI-H23 and 14.6 µM (inactive) in the assay with NCI-H522.

In the case of `C/C(CN1C(=O)c2ccccc2C1=O)=N\NS(=O)(=O)c1ccccc1`, the GI50 in the assay on TK-10, in the assay with MOLT-4, in the assay with NCI-H460, in the assay on M14, in the assay with A498 and in the assay on OVCAR-4 was > 100 µM (inactive) each time. Moreover, the GI50 with KM12, in the assay on HOP-92, with ACHN, with UO-31, in the assay on UACC-62 and in the assay on OVCAR-8 was > 100 µM (inactive) each time. The GI50 in the assay on NCI-H226, in the assay on NCI-H23, in the assay on NCI-H522 and with SK-MEL-5 was > 100 µM (inactive) throughout.

For the molecule `CCOC(=O)/C(O)=C(/C(=O)OC)c1ccc(Cl)cc1`, the GI50 in the assay with TK-10, in the assay with MOLT-4, in the assay on NCI-H460, in the assay on M14, with A498 and with OVCAR-4 was > 100 µM (inactive) in each case. In addition, the GI50 in the assay on KM12, with ACHN, with UO-31, in the assay with UACC-62, with OVCAR-8 and with NCI-H23 was > 100 µM (inactive) each time. For the same molecule, the GI50 with SK-MEL-5 was > 100 µM (inactive).

Regarding `O=C1CCC2(c3ccc(F)cc3)Nc3ccccc3N12` (stereo unspecified), the GI50 in the assay on TK-10, with MOLT-4, in the assay with NCI-H460, in the assay with M14, in the assay with A498 and in the assay on OVCAR-4 was > 100 µM (inactive) in each case. The GI50 in the assay on KM12, in the assay with HOP-92, with ACHN, with UO-31, in the assay with UACC-62 and in the assay on OVCAR-8 was > 100 µM (inactive) each time. Moreover, the GI50 in the assay with NCI-H226, in the assay with NCI-H23, with NCI-H522 and in the assay on SK-MEL-5 was > 100 µM (inactive) in each case.

As to `O=c1ccn(/C=C/C(O)C(O)CO)c(=O)[nH]1` (stereo unspecified), the GI50 was > 100 µM (inactive) in the assay with TK-10; > 100 µM (inactive) with MOLT-4; > 100 µM (inactive) in the assay on A498; > 100 µM (inactive) in the assay on OVCAR-4; 21.7 µM (inactive) in the assay on KM12; > 100 µM (inactive) in the assay with ACHN. Moreover, the GI50 with UO-31, with UACC-62, with OVCAR-8, with NCI-H226, in the assay on NCI-H23 and in the assay with NCI-H522 was > 100 µM (inactive) in each case. Moreover, the GI50 in the assay on SK-MEL-5 was > 100 µM (inactive).
